Results on 20 compounds are retold here after patent publication US5643784A, “Indan derivatives” (H, Lundbeck A/S, priority 1990, dated 1997).

Structures are written as SMILES. pIC50: −log10 of the molar value.

The target of one experiment is T1, 5-HT2 receptors (Rattus norvegicus, UniProt P14842).
T1 construct: cortical tissue is dissected and weighed; from tissue; host or cells: cortex of male Wistar rats, crude membranes
Briefly: Inhibition of 3H-ketanserin binding to 5-HT2 receptors in rat cortex in vitro. To be noted: 3H-Ketanserin 0.5 nM, rat cortex, 37° C., 30 min; read-out: Receptor Binding; IC50 5-HT2 3H-Ket. On the procedure:
Method in Hyttel, Pharmacology & Toxicology, 61, 126-129, 1987.
Male Wistar (Mol:Wist) rats (125-250 g) are sacrificed and cortical tissue is dissected and weighed. The tissue is homogenized (Ultra Turrax, 10 sec.) in 10 ml of ice-cold 50 mM tris buffer pH 7.7 (at 25° C.). The centrifuge glassware used in this step has been rinsed by sonication for 10 min. in ethanol. The homogenate is centrifuged twice at 20,000 g for 10 min. at 4° C. with rehomogenization of the pellet in 10 ml ice-cold buffer. The final pellet is homogenized in 500 vol (w/v) ice-cold buffer.
Incubation tubes kept on ice in triplicate receive 100 μl of drug solution in water (or water for total binding) and 2000 μl of tissue suspension (final tissue content corresponds to 4 mg original tissue). […] After incubation for 30 min. the samples are filtered under vacuum (0-50 mBar) through Whatman GF/F filters (25 mm). The tubes are rinsed with 5 ml ice-cold buffer which are then poured on the filters. Thereafter, the filters are washed with 2×5 ml of buffer. The filters are placed in counting vials and 4 ml of appropriate scintillation fluid (e.g. Picofluor™15) are added. After shaking for 1 h and storage 2 hrs in the dark the content of radioactivity is determined by liquid scintillation counting. Specific binding is obtained by subtracting the nonspecific binding in the presence of 1 μM mianserin.
(§1) For determination of the inhibition of binding five concentrations of drugs covering 3 decades are used.
The IC50 value is determined as the concentration at which the binding is 50% of the total binding in control samples minus the nonspecific binding in the presence of 1 μM mianserin.

A further experiment has as its target α1 adrenoceptors. In words: Inhibition of 3H-prazosin binding to α1 adrenoceptors in rat brain in vitro. The settings on record: 3H-Prazosin 0.25 nM, rat brain, 25° C., 20 min; read-out: Receptor Binding; IC50 α1 3H-Praz. On the procedure: INHIBITION OF ^3 H-PRAZOSIN BINDING TO α1 ADRENOCEPTORS IN RAT BRAIN IN VITRO
Method and results in Hyttel & Larsen, J. Neurochem, 44, 1615-1622, 1985; Skarsfeldt & Hyttel, Eur. J. Pharmacol. 125, 323-340, 1986.
Male Wistar (Mol:Wist) rats (125-200 g) are sacrificed and brain tissue is dissected and weighed. The tissue is homogenized (Ultra Turrax, 10 sec.) in 10 ml of ice-cold […] Tris buffer pH 7,7 (at 25° C.). The homogenate is centrifuged twice at 20,000 g for 10 min. at 4° C. with rehomogenization of the pellet in 10 ml ice-cold buffer. The final pellet is homogenized in 400 vol (w/v) ice-cold buffer.
Incubation tubes kept on ice in triplicate receive 100 μl of drug solution in water (or water for total binding) and 4000μl of tissue suspension (final tissue content corresponds to 10 mg original tissue). The binding experiment is initiated by addition of 100 μl of ^3 H-Prazosin (final concentration 0.25 nM) and by placing the tubes in a 25° C. water bath. After incubation for 20 min. the samples are filtered under vacuum (0-50 mBar) through Whatman GF/F filters (25 mm). The tubes are rinsed with 5 ml ice-cold buffer which then are poured on the filters. Thereafter, the filters are washed with 5 ml of buffer. The filters are placed in counting vials and 4 ml of appropriate scintillation fluid (e.g. Picofluor™15) are added. After shaking for 1 h and storage 2 hrs in the dark the content of radioactivity is determined by liquid scintillation counting. Specific binding is obtained by subtracting the nonspecific binding in the presence of 1 μM of Prazosin.
as §1
The measured cpm are plotted against drug concentration on semilogarithmic paper and the best fitting S-shaped curve is drawn. The IC50 value is determined as the concentration at which the binding is 50% of the total binding in control samples minus the nonspecific binding in the presence of 1 μM of Prazosin.
^3 H-Prazosin=[furoyl-5-^3 H]-Prazosin from New England Nuclear, specific activity approximately 20 Ci/mmol.

T1 sequence (P14842 whole entry): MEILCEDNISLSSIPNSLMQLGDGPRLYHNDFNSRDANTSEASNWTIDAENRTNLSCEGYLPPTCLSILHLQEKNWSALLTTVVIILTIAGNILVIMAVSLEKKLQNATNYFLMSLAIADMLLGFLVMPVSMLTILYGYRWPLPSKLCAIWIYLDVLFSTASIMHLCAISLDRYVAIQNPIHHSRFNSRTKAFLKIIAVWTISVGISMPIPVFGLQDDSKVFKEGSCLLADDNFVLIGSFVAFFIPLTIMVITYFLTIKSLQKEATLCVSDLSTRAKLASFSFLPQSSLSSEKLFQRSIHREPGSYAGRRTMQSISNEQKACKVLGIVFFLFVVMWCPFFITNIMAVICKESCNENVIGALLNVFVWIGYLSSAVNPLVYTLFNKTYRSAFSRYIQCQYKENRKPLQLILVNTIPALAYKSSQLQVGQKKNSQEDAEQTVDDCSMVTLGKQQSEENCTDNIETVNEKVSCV

For the compound `O=C1NCCCN1CCN1CCN([C@@H]2C[C@@H](c3ccc(F)cc3)c3cc(Cl)ccc32)CC1` (single isomer, unassigned) [(+)-34, (+)-Trans-1-[2-[4-[5-chloro-3-(4-fluorophenyl)-2,3-dihydro-1H-inden-1-yl]piperazin-1-yl]ethyl]-tetrahydro-2(1H)-pyrimidinone], the pIC50 at 5-HT2 receptors was 6.92.
For the compound `O=C1NCCCN1CCN1CCN([C@@H]2C[C@@H](c3ccc(F)cc3)c3cc(Cl)ccc32)CC1` (single isomer, unassigned) [(-)-34, (-)-Trans-1-[2-[4-[5-chloro-3-(4-fluorophenyl)-2,3-dihydro-1H-inden-1-yl]piperazin-1-yl]ethyl]-tetrahydro-2(1H)-pyrimidinone], the figures for the pIC50 on 5-HT2 receptors and at α1 adrenoceptors were 8.89 and 7.21, respectively.
With `Fc1ccc([C@@H]2C[C@@H](N3CCN(CCN4CCCNC4=S)CC3)c3ccc(F)cc32)cc1` (single isomer, unassigned) [(-)-30, (-)-Trans-1-[2-[4-[5-fluoro-3-(4-fluorophenyl)-2,3-dihydro-1H-inden-1-yl]piperazin-1-yl]ethyl]-tetrahydro-2(1H)-pyrimidinethione], the pIC50 on 5-HT2 receptors is 7.38.
As for `OCCN1CCN([C@H]2C[C@H](c3ccc(F)cc3)c3cc(F)ccc32)CC1` (relative stereo) [Compound 2, Trans-4-[5-fluoro-3-(4-fluorophenyl)-2,3-dihydro-1H-inden-1-yl]-1-piperazine ethanol], the pIC50 is 7.68 at 5-HT2 receptors and 6.82 at α1 adrenoceptors.
`O=c1[nH]c2ccccc2n1CCN1CCN([C@@H]2C[C@@H](c3ccc(F)cc3)c3cc(Cl)ccc32)CC1` (relative stereo) [Compound 25, Trans-1-[2-[4-[5-chloro-3-(4-fluorophenyl)-2,3-dihydro-1H-inden-1-yl]piperazin-1-yl]ethyl]-benzimidazolin-2-one]: the pIC50 on 5-HT2 receptors is 8.25.
Turning to `O=C1NCCN1CCCN1CCN([C@H]2C[C@H](c3ccc(F)cc3)c3cc(Cl)ccc32)CC1` (relative stereo) [Compound 16, Trans-1-[3-[4-[5-chloro-3-(4-fluorophenyl)-2,3-dihydro-1-H-inden-1-yl]piperazin-1-yl]propan-1-yl]-2-imidazolidinone], the results for the pIC50 at 5-HT2 receptors and on α1 adrenoceptors were 8.00 and 7.14, respectively.
With `OCCN1CCN([C@H]2C[C@H](c3ccc(F)cc3)c3cc(F)ccc32)CC1` (single isomer, unassigned) [(+)-2], the pIC50 was 7.92 on 5-HT2 receptors and 7.14 on α1 adrenoceptors.
The matching figures for `Fc1ccc([C@@H]2C[C@@H](N3CCN(CCN4CCNC4=S)CC3)c3ccc(F)cc32)cc1` (relative stereo) [Compound 29, Trans-1-[2-[4-[5-fluoro-3-(4-fluorophenyl)-2,3-dihydro-1H-inden-1-yl]piperazin-1-yl]-ethyl]-2-imidazolidinthione]: 8.82 and 6.96.
The matching figures for `Cc1ccc2c(c1)[C@@H](c1ccc(F)cc1)C[C@@H]2N1CCN(CCN2CCN(C(C)C)C2=O)CC1` (relative stereo) [Compound 12, Trans-1-[2-[4-[3-(4-fluorophenyl)-5-methyl-2,3-dihydro-1-H-inden-1-yl]piperazin-1-yl]ethyl]-3-isopropyl-2-imidazolidinone]: 8.52 and 6.92.
On to `O=C1NCCN1CCN1CCN([C@@H]2C[C@@H](c3ccc(F)cc3)c3cc(Cl)ccc32)CC1` (relative stereo) [Compound 4, Trans-1-[2-[4-[5-chloro-3-(4-fluorophenyl)-2,3-dihydro-1H-inden-1-yl]piperazine-1-yl]ethyl]-2-imidazolidinone], for which the pIC50 at 5-HT2 receptors was 8.54; at α1 adrenoceptors it was 6.70.
Take `Fc1ccc([C@@H]2C[C@@H](N3CCN(CCN4CCCNC4=S)CC3)c3ccc(Cl)cc32)cc1` (single isomer, unassigned) [(+)-32, (+)-Trans-1-[2-[4-[5-chloro-3-(4-fluorophenyl)-2,3-dihydro-1H-inden-1-yl]piperazin-1-yl]ethyl]-tetrahydro-2(1H)-pyrimidinethione]: the pIC50 on 5-HT2 receptors is 7.68; on α1 adrenoceptors it was 6.46.
With `CC(C)N1CCN(CCN2CCN([C@H]3C[C@H](c4ccc(F)cc4)c4cc(Cl)ccc43)CC2)C1=O` (single isomer, unassigned) [(+)-11], the pIC50 was 7.12 on 5-HT2 receptors and 6.47 on α1 adrenoceptors.
With `OCCN1CCN([C@H]2C[C@H](c3ccc(F)cc3)c3cc(Cl)ccc32)CC1` (single isomer, unassigned) [(-)-3], the figures for the pIC50 on 5-HT2 receptors and on α1 adrenoceptors were 7.96 and 6.68, respectively.
Consider `OCCN1CCN([C@H]2C[C@H](c3ccc(F)cc3)c3cc(F)ccc32)CC1` (single isomer, unassigned) [(-)-2], for which the pIC50 is 6.30 on 5-HT2 receptors and 5.96 at α1 adrenoceptors.
In the case of `Fc1ccc([C@@H]2C[C@@H](N3CCN(CCN4CCCNC4=S)CC3)c3ccc(F)cc32)cc1` (relative stereo) [Compound 30, Trans-1-[2-[4-[5-fluoro-3-(4-fluorophenyl)-2,3-dihydro-1H-inden-1-yl]piperazin-1-yl]ethyl]-tetrahydro-2(1H)-pyrimidinethione], the pIC50 was 8.77 at 5-HT2 receptors and 6.96 at α1 adrenoceptors.
For `OCCN1CCN([C@H]2C[C@H](c3ccc(F)cc3)c3cc(Cl)ccc32)CC1` (single isomer, unassigned) [(+)-3], the pIC50 at 5-HT2 receptors was 6.64; on α1 adrenoceptors, 5.60.
The matching figures for `CC(C)N1CCN(CCN2CCN([C@@H]3C[C@@H](c4ccc(F)cc4)c4cc(Cl)ccc43)CC2)C1=O` (single isomer, unassigned) [(-)-11, (-)-Trans-1-[2-[4-[5-chloro-3-(4-fluorophenyl)-2,3-dihydro-1H-inden-1-yl]piperazin-1-yl]-ethyl]-3-isopropyl-2-imidazolidinone]: 8.96 and 6.68.
Turning to `O=C1CCCN1CCN1CCN([C@H]2C[C@H](c3ccc(F)cc3)c3cc(Cl)ccc32)CC1` (relative stereo) [Compound 15, Trans-1-[2-[4-[5-chloro-3-(4-fluorophenyl)-2-3-dihydro-1-H-inden-1-yl]piperazin-1-yl]ethyl]-2-pyrrolidinone], the figures for the pIC50 at 5-HT2 receptors and at α1 adrenoceptors were 8.00 and 6.43, respectively.
`Fc1ccc([C@@H]2C[C@@H](N3CCN(CCN4CCCNC4=S)CC3)c3ccc(Cl)cc32)cc1` (relative stereo) [Compound 32, Trans-1-[2-[4-[5-chloro-3-(4-fluorophenyl)-2,3-dihydro-1H-inden-1-yl]piperazin-1-yl]ethyl]-tetrahydro-2(1H)-pyrimidinethione]: the pIC50 at 5-HT2 receptors was 8.82; on α1 adrenoceptors, 6.77.
The matching figures for `O=C1OCCN1CCN1CCN([C@H]2C[C@H](c3ccc(F)cc3)c3cc(Cl)ccc32)CC1` (relative stereo) [Compound 14, Trans-3-[2-[4-[5-chloro-3-(4-fluorophenyl)-2,3-dihydro-1-H-inden-1-yl]piperazin-1-yl]ethyl]-2-oxazolidinone]: 7.64 and 6.85.
